Each structure is given as a SMILES string.

The series can be described thus: gradient 5% acetonitrile 3 min, to 50% in 2 min, to 85% in 15 min, held 3 min, 100 µL/min. The settings on record: column: Zorbax Extend-C18 2.1 x 50 mm; eluents: water / acetonitrile, 0.1% formic acid. Summed up: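 Retention times of pure standards were taken from adduct peaks that were selected by computer and manually inspected. Over 3 months, mixtures of ~100 molecules were run by HPLC–quadrupole time-of-flight mass spectrometry in positive and negative ionization mode. The Zorbax Extend-C18 column (2.1 × 50 mm, 1.8 μm) ran at 100 μL/min in water and acetonitrile, each containing 0.1% formic acid, with 40 μL dead volume and 900 μL dwell volume.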
The compound `COC(=O)c1c(NCc2ccccc2OC)c2cccc(Cl)c2[nH]c1=O` gave an RP-LC retention time of 820 s.

With `COC(=O)c1cccc(Nc2c(-c3cccc(O)c3)nc3cnccn23)c1`, the RP-LC retention time amounted to 696 s.

`COc1nn(C)cc1C(=O)Nc1nnc(-c2cc(C)oc2C)o1` came in with an RP-LC retention time of 666 s.

`Cc1oc(C2CCN(S(=O)(=O)c3ccc(F)cc3)CC2)nc1C(=O)N1CCCC1`: the RP-LC retention time turned out to be 890 s.

`Cn1cc(C(=O)NCc2ccccc2Cl)c(S(=O)(=O)N2CCSCC2)n1` yielded an RP-LC retention time of 890 s.

The compound `Cc1ccc(C)c(OCc2nc(CC(=O)Nc3nc(-c4ccc(F)cc4)c(C)s3)cs2)c1` gave an RP-LC retention time of 1310 s.

Compound `O=c1ccn(-c2ccccc2)nc1-c1nc(-c2ccncc2)no1` gave an RP-LC retention time of 649 s.

Regarding `CC(C(=O)Nc1ccc(Cl)cc1)C1CCN(C(=O)Nc2ccccc2)CC1` (centres undefined), the RP-LC retention time amounted to 910 s.

Regarding `CCc1ccc(N2C(=O)c3c(C(=O)OC)ncn3CC2(C)C(=O)NC2CCCC2)cc1` (centres undefined), the RP-LC retention time came to 615 s.

In the case of `CC(C)(Cc1c[nH]c2ccc(Cl)cc12)NCCOc1ccccc1OCC1CC1`, the RP-LC retention time amounted to 953 s.

`COc1cccc(-c2nc(C3CC(=O)N(c4ccc(F)c(Cl)c4)C3)no2)c1` (centres undefined) returned an RP-LC retention time of 1100 s.

In turn, `COc1ccc(Cn2nnc3cc(C(=O)NCc4ccco4)ccc32)cc1` registered an RP-LC retention time of 818 s.

Turning to `COC(=O)[C@H](CCSC)NC(=O)c1cccc(-n2cnnn2)c1`, the RP-LC retention time was determined as 707 s.

`O=C(Cc1ccccc1Br)N1CCN(c2cc(-c3cccs3)[nH]n2)CC1` came in with an RP-LC retention time of 837 s.

`CC1CC(=O)N(CC(=O)Nc2ccc3c(c2)OCO3)c2ccccc2S1` (centres undefined) registered an RP-LC retention time of 865 s.

The compound `NC(=O)c1c(NC(=O)C2CCCN(C(=O)c3cc(F)cc(F)c3)C2)sc2c1CCCC2` (centres undefined) returned an RP-LC retention time of 1230 s.

Consider `Cc1cc(C)nc(NS(=O)(=O)c2ccc(NC(=O)c3c(F)cccc3F)cc2)n1`, for which the RP-LC retention time was determined as 653 s.

In the case of `Cc1cc(N2CCN(S(=O)(=O)c3ccccc3Cl)CC2)nc(NC2CCCCC2)n1`, the RP-LC retention time turned out to be 838 s.

Take `CN1c2ccccc2C(=O)NC12CCN(C(=O)Nc1ccccc1Cl)CC2`: the RP-LC retention time was found to be 761 s.

As to `Fc1ccccc1-c1noc(-c2nnn3c2COC(c2ccc(Cl)cc2)C3)n1` (centres undefined), the RP-LC retention time is 1160 s.

Regarding `CC(=O)NC(C)c1nc(-c2ccc(C(C)(C)C)cc2)no1` (centres undefined), the RP-LC retention time came to 901 s.

As to `O=C(O)c1cc(-c2c[nH]c3ccccc23)nc2ccccc12`, the RP-LC retention time came to 624 s.

The compound `Cc1nc([N+](=O)[O-])c(Sc2nc3ccccc3[nH]2)n1Cc1ccccc1` gave an RP-LC retention time of 702 s.

`Cn1cc(C(=O)NCc2cc(F)cc(F)c2)c(S(=O)(=O)N2CCSCC2)n1` yielded an RP-LC retention time of 1010 s.

For `O=C(N1CCCC(c2nnc(-c3cccs3)o2)C1)C1(c2ccccc2)CCOCC1` (centres undefined), the RP-LC retention time turned out to be 812 s.

Turning to `Cc1cc(SCC(=O)Nc2ccc3c(c2)OCO3)nc(-c2cnccn2)n1`, the RP-LC retention time amounted to 680 s.

For `Cc1cc(C)cc(C(=O)NCCc2nc3cccnc3n2C(C)C)c1`, the RP-LC retention time amounted to 744 s.

On to `Cc1ccc(S(=O)(=O)N2CC(c3nc(C)no3)C3(CCOCC3)C2)cc1` (centres undefined), for which the RP-LC retention time amounted to 845 s.

Compound `COc1cccc(NC(=O)C2CCN(c3nc4ccc(-c5cncnc5)nc4s3)CC2)c1` returned an RP-LC retention time of 736 s.

On to `Cc1sc(NC(=O)c2cccc(Cn3cc(Br)cn3)c2)nc1-c1ccccc1`, for which the RP-LC retention time came to 1190 s.

Compound `Cc1ccc(-c2ccc3nn(Cc4nc(-c5ccc(Br)cc5)no4)c(=O)n3n2)cc1` returned an RP-LC retention time of 1100 s.

`Cc1ccc(CCC(=O)Nc2cccc3ccccc23)o1` yielded an RP-LC retention time of 847 s.

`CCc1cccc(N2C=C(C(=O)OC)S(=O)(=O)c3ccccc32)c1` came in with an RP-LC retention time of 930 s.

`CCN1CCN(CCCNC(=O)C2=Cc3cc(OC)ccc3OC2)CC1` registered an RP-LC retention time of 578 s.

The compound `O=C(Cn1c(-c2cccnc2)nc2ccccc21)Nc1nccs1` returned an RP-LC retention time of 628 s.

Consider `CC(C)c1nccn1C1CN(C(=O)CCCc2c[nH]c3ccccc23)C1`, for which the RP-LC retention time is 631 s.

With `CCNC(=O)c1n[nH]c2c1CN(C(=O)c1cccc(Br)c1)CC2`, the RP-LC retention time was 678 s.

`Cc1noc([C@@H]2CC(F)(F)CN2C(=O)c2cc(C3CC3)[nH]n2)n1` gave an RP-LC retention time of 726 s.

As for `C[C@@H]1C(=O)O[C@H]2C[C@@]34[C@H]5C[C@@H](C(C)(C)C)[C@]36[C@@H](OC(=O)[C@@H]6O)O[C@@]4(C(=O)O5)[C@]21O`, the RP-LC retention time was 715 s.

The compound `CCn1cc(CN2C[C@@H](COC)[C@H](c3ccccn3)C2)c(C)n1` had an RP-LC retention time of 573 s.

As for `Cc1ccc(-n2cc(C(=O)O)nn2)c(F)c1`, the RP-LC retention time was determined as 705 s.

For the compound `COCc1nc2cccnc2n1C1CCN(C(=O)NCCc2ccccc2)CC1`, the RP-LC retention time turned out to be 692 s.

For `COc1ccc(-c2nc(Cc3noc(-c4ccccc4OC)n3)c(C)o2)cc1`, the RP-LC retention time is 1070 s.

Regarding `CSc1cccc(N2C(=O)C3N=NN(Cc4nc(-c5ccc(Cl)cc5)no4)C3C2=O)c1` (centres undefined), the RP-LC retention time amounted to 1070 s.

With `CC1=C(C(=O)N2CCOCC2)C(c2cccc(Br)c2)C2=C(CCCC2=O)N1` (centres undefined), the RP-LC retention time stood at 664 s.

`O=C(NCc1noc(C2CCCCC2)n1)c1coc(C2CC2)n1` came in with an RP-LC retention time of 889 s.

Regarding `Cc1ccc(-c2nc(CN(c3ccccc3)S(=O)(=O)c3cccs3)c(C)o2)cc1`, the RP-LC retention time was determined as 1200 s.

For the compound `COc1ccc(F)cc1S(=O)(=O)N(C)CC1(C)CCOCC1`, the RP-LC retention time was 864 s.

For the compound `CCOC(=O)c1c(S(=O)(=O)N2CCC(C(=O)Nc3cccc(F)c3)CC2)c(C)n(C)c1C`, the RP-LC retention time is 862 s.

`Cc1cc(Nc2ccccc2)nc(N2CCN(C(=O)Nc3ccccc3)CC2)n1` yielded an RP-LC retention time of 693 s.

For the compound `Cc1nc(C)c(C(=O)NCC23CCCC=C2N(CC2CC2)C(=O)CC3)s1` (centres undefined), the RP-LC retention time was 785 s.

As to `O=C(Nc1ccc(OCc2nnc(-c3ccccc3)o2)cc1)C1CCC1`, the RP-LC retention time came out at 878 s.

In turn, `CCOc1ccc(NC(=O)N2CC(=O)N(CC(=O)N3CCC(C(N)=O)CC3)c3ccccc32)cc1` came in with an RP-LC retention time of 660 s.

`CC1CCCN(CCCNC(=O)CC2CCN(C(=O)C3CCCCC3)CC2)C1` (centres undefined) came in with an RP-LC retention time of 604 s.

Take `COc1ccc(Cc2nnc3sc(COc4ccc(OC)cc4)nn23)cc1`: the RP-LC retention time came to 902 s.

The compound `NS(=O)(=O)c1ccc(CCNCc2ccc(-c3ccc(Cl)cc3Cl)o2)cc1` displayed an RP-LC retention time of 800 s.

The compound `COc1ccc(C2Cn3nnc(-c4nc(-c5ccc(C)cc5)no4)c3CO2)cc1` (centres undefined) had an RP-LC retention time of 1180 s.

`O=C(Cn1nc2n(c1=O)CCCC2)Nc1ccccc1`: the RP-LC retention time amounted to 633 s.

Regarding `COc1cccc(NC(=O)C2CCN(C(=O)C3CC(=O)N(c4ccccc4)C3)CC2)c1` (centres undefined), the RP-LC retention time is 714 s.

`COc1ccc(Cl)cc1S(=O)(=O)N1CCc2nc(-c3ccc(F)cc3)ncc2C1`: the RP-LC retention time came to 1130 s.

In turn, `Cc1sc(-c2cc(C(F)(F)F)[nH]n2)cc1S(=O)(=O)N1CCN(c2ccc(F)cc2)CC1` returned an RP-LC retention time of 1110 s.

`COc1ccc(CNC(=O)[C@@]23CCCC[C@H]2N(C)C(=O)CC3)c(OC)c1` returned an RP-LC retention time of 663 s.

For the compound `CCCn1ccc2sc(C)c(C(=O)NCc3ccc(OC)cc3)c2c1=O`, the RP-LC retention time amounted to 836 s.

With `Cc1cccc(OCCCn2c(CO)nc3ccccc32)c1`, the RP-LC retention time was found to be 678 s.

As for `Cc1cc(C)cc(N2CCC(NC(=O)Nc3ccccc3Cl)C2=O)c1` (centres undefined), the RP-LC retention time is 936 s.

For `Cc1sc(-c2cc(C(F)(F)F)on2)cc1S(=O)(=O)N1CCCc2ccccc21`, the RP-LC retention time was found to be 1300 s.

In the case of `O=C(CN1CCN(Cc2ccc(F)cc2)C1=O)NC1CCN(Cc2ccccc2)CC1`, the RP-LC retention time was determined as 618 s.

The compound `Cc1cc(C)cc(N2CCC(NC(=O)Cc3cccs3)C2=O)c1` (centres undefined) yielded an RP-LC retention time of 862 s.

The compound `Cc1cccc(CCNC(=O)c2cc3n(n2)CC(C)(C(=O)NCc2ccccc2)N(C)C3=O)c1` (centres undefined) returned an RP-LC retention time of 814 s.

Turning to `Cc1ccc(C)c(NC(=O)CN(C)S(=O)(=O)c2cc(C(=O)N3CCC(C)CC3)n(C)c2)c1`, the RP-LC retention time worked out at 924 s.

For `Cc1cc2nc(C(=O)Nc3ccc(C#N)cc3)cc(C)n2n1`, the RP-LC retention time came out at 890 s.

The compound `CCn1c(CC2C(=O)Nc3ccc(Br)cc32)nc2ccccc2c1=O` (centres undefined) yielded an RP-LC retention time of 825 s.

Regarding `Cc1cc(C)cc(C(=O)N2CCN(c3cc(=O)n(C)c(=O)n3C)CC2)c1`, the RP-LC retention time was found to be 691 s.

In turn, `Cc1cccc(NC(=O)N2CCCC(C)(C(=O)NCc3ccc(F)cc3)C2)c1` (centres undefined) returned an RP-LC retention time of 924 s.

Compound `O=C(CCC1CCN(c2cc(NC3CC3)ncn2)CC1)NCc1cc(F)cc(F)c1` came in with an RP-LC retention time of 673 s.

In turn, `CCC(C)NC(=O)N1CC(Oc2cccc(-c3nc(C)no3)c2)C1` (centres undefined) gave an RP-LC retention time of 801 s.

As for `CCN(CC)c1ccc(NC(=O)Cn2cc3c(n2)CCCCC3)c(C)c1`, the RP-LC retention time stood at 674 s.

`Cc1ccc(C(=O)N2CCC[C@H]2c2nc(-c3ccccc3)n[nH]2)s1` came in with an RP-LC retention time of 740 s.

Compound `Cc1cccc(CNC(=O)Cn2c(C)cc(-c3nnc(-c4ccccc4)o3)c2C)c1` had an RP-LC retention time of 921 s.

These data come from the METLIN SMRT retention time set (Domingo-Almenara et al. 2019).
